Data on 29 compounds can be found in patent US6440996B1, “Monomeric and dimeric heterocycles, and therapeutic uses thereof” (priority 1998, dated 2002).

The target in data set [1] is T1, dopamine transporter (Rattus norvegicus, UniProt P23977).
T1 construct: from tissue; P2 synaptosomes for uptake
The experiment in a line: [3H]WIN 35,428 binding to rat striatal membranes / dopamine transporter binding (DAT). On the procedure:
(§1) Determination of inhibitory binding potencies of analogues at dopamine, serotonin, and norepinephrine transporters are carried out using standard receptor binding assays which are known in the art.
A. Dopamine Transporter Binding (DAT)

Data set [2] concerns the target T1, dopamine transporter. The experiment in a line: Inhibition of high-affinity [3H]dopamine uptake into rat striatal nerve endings (synaptosomes). It counts as biochemical. On the procedure: A. [^3H]Dopamine Uptake Studies
The effect of candidate compounds in antagonizing dopamine high-affinity uptake was determined using a method previously employed. For [^3H]DA uptake, dissected rat striata were homogenized with a Teflon-glass pestle in ice-cold 0.32 M sucrose and centrifuged for 10 min at 1000×g. The supernatant was centrifuged at 17,500×g for 20 min. This P2 synaptosomal pellet was resuspended in 30 volumes of ice-cold modified KRH buffer. An aliquot of the synaptosomal suspension was preincubated with the buffer and drug for 30 min at 37° C., and uptake initiated by the addition of [^3H]dopamine (5 nM, final concentration). After 5 min, uptake was terminated by adding 5 mL of cold buffer containing glucosamine as a substitute for NaCl and then finally by rapid vacuum filtration over GF-C glass fiber filters, followed by washing with two 5 mL volumes of ice-cold, sodium-free buffer. Radioactivity retained on the filters was determined by liquid scintillation spectrometry. […] It is identical to that calculated by subtracting the mean of identical tubes incubated at 0° C.

In data set [3] the target is norepinephrine transporter (Rattus norvegicus, UniProt Q9WTR4). The experiment in a line: Norepinephrine transporter binding (NET). On the procedure: as §1
Chain of norepinephrine transporter (Q9WTR4 1-597): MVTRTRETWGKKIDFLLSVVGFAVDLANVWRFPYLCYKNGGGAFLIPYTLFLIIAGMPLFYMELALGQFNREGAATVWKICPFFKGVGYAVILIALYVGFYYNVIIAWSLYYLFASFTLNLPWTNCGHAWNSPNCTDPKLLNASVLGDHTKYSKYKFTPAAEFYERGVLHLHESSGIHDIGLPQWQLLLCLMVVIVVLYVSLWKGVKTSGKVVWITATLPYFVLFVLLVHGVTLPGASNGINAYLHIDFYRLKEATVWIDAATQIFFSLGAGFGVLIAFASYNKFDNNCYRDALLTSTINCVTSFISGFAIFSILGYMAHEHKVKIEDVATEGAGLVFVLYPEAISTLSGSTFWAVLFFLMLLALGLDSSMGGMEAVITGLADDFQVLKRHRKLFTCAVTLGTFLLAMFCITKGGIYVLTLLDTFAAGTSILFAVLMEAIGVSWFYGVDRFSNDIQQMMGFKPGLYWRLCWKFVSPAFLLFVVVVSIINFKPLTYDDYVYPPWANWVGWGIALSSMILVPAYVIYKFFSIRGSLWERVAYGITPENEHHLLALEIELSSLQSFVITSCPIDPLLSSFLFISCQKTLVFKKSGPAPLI
C. Norepinephrine Transporter Binding (NET)
J. Med Chem., 36, 2886-2890.

The target in data set [4] is serotonin transporter (Rattus norvegicus, UniProt P31652). The experiment in a line: Serotonin transporter binding (5-HTT). On the procedure: as §1
Chain of serotonin transporter (P31652 whole entry): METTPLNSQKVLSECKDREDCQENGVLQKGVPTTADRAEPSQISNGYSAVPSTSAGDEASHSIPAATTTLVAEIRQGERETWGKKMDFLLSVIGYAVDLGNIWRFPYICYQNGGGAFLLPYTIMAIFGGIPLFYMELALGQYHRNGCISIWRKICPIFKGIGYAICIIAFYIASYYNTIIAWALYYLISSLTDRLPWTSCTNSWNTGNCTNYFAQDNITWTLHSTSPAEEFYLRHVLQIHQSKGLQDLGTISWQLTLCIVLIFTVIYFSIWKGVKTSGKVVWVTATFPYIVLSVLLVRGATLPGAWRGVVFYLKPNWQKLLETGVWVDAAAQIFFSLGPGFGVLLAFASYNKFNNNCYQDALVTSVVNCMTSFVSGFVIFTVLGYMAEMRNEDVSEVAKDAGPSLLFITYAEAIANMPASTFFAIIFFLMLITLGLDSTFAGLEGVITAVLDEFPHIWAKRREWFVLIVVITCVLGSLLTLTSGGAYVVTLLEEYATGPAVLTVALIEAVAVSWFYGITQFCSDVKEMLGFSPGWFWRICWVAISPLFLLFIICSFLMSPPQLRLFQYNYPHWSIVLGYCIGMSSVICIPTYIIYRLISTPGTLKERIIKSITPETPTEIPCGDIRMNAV
B. Serotonin Transporter Binding (5-HTT)
Mol. Pharmacol., 39, 339.

[5] abbreviates: rat striatal synaptosomes, Table 1, read-out: IC50 (nM) [3H]dopamine uptake.
The mark [6] stands for this setting: IC50 (nM) [3H]WIN 35,428 binding, rat striatal membranes, Table 1.
[7] abbreviates: Table 2, unit inferred, read-out: Dopamine Uptake.
[8] abbreviates: Table 2, read-out: NET IC50 (nm).
Where [9] appears, read: Table 2, read-out: 5-HTT IC50 (nm).
Where [10] appears, read: rat striatal membranes, Table 1, read-out: IC50 (nM) [3H]WIN 35,428 binding.
Setting [11] is: Table 2, read-out: DAT IC50 (nm).

Molecules are shown by their SMILES. Structures can show the parent of a compound that is named as a salt. Where two headings read alike, the source gives them in different places. Where only a bound is given, the exact number is not on record here.

T1 sequence (P23977 whole entry): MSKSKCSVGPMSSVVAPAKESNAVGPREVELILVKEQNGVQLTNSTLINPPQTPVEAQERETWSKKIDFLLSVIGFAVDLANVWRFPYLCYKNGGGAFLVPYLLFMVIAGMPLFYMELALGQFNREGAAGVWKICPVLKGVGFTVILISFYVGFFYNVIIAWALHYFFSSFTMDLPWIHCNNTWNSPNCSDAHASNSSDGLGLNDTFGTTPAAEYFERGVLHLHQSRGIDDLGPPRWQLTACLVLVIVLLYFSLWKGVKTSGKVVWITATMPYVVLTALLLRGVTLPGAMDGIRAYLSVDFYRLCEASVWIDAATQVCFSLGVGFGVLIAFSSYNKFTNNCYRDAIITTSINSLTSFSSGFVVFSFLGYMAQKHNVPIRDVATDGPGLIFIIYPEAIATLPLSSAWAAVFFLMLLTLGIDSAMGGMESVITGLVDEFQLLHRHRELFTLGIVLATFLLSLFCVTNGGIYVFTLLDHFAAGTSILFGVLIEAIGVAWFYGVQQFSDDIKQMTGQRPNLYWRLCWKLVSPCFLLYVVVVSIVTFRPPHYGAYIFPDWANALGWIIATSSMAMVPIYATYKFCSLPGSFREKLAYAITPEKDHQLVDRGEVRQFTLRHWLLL

For `COC(=O)C1CN(C)CCC1c1ccc(Cl)cc1` (racemic) [1 · HCl], the IC50 in data set [1] (DAT IC50 (nm), Table 2) worked out at 53 nM.

For `COC(=O)[C@@H]1CN(C)CC[C@@H]1c1ccc(Cl)cc1` (racemic) [Compound 1, (±)-cis-Methyl 4-(4-Chlorophenyl)-1-methylpiperidine-3-carboxylate], the melting point (commonly the temperature, or range, at which the solid turns liquid) lay within 98 to 99 °C. For the same compound, the IC50 in data set [2] (setting [5]) was 37.8 ± 7.9 nM. Further, the IC50 in data set [1] (DAT IC50 (nm), Table 2) came out at 22 nM. Moreover, the IC50 in data set [1] (setting [6]) came out at 53.7 ± 1.9 nM.

Take `COC(=O)C1CN(C)CCC1c1ccc2ccccc2c1` (racemic) [Compound 75, (±)-Methyl 4-(2-Naphthyl)-1-methylpiperidine-3-carboxylate]: the IC50 in data set [3] worked out at 607 nM; in data set [4] (5-HTT IC50 (nm), Table 2), 0.366 µM; in data set [1] (DAT IC50 (nm), Table 2), 78 nM.

On to `COC(=O)C1CN(C)CCC1c1ccc(Cl)cc1` (single isomer, unassigned; (+)) [Compound 4, (+)-Methyl 4β-(4-Chlorophenyl)-1-methylpiperidine-3β-carboxylate], for which the figures for the IC50 in data set [2] (setting [7]) and in data set [2] (setting [5]) were 5090 nM and 5090 ± 172 nM, respectively.

Regarding `CN1CCC(c2ccc(Cl)cc2)C(CO)C1` (single isomer, unassigned; (+)) [Compound 6, (+)-4β-(4-Chlorophenyl)-3β-(hydroxymethyl)-1-methylpiperidine], the IC50 in data set [1] (DAT IC50 (nm), Table 2) came out at 442 nM; in data set [1] (setting [6]), 442 ± 32 nM.

With `CC(=O)OCC1CN(C)CCC1c1ccc(Cl)cc1` (single isomer, unassigned; (+)) [Compound 8, (+)-3β-(Acetoxymethyl)-4β-(4-chlorophenyl)-1-methylpiperidine], the IC50 amounted to 2030 nM in data set [2] (setting [7]); 2030 ± 82 nM in data set [2] (setting [5]); 928 nM in data set [1] (DAT IC50 (nm), Table 2); 928 ± 43 nM in data set [1] (setting [6]).

For the compound `CN1CCC(c2ccc(Cl)cc2)C(CO)C1` (single isomer, unassigned; (+)) [Compound 13, (+)-4β-(4-Chlorophenyl)-3α-(hydroxymethyl)-1-methylpiperidine], the IC50 in data set [2] (setting [7]) is 864 nM; in data set [2] (setting [5]), 683 ± 47 nM; in data set [1] (DAT IC50 (nm), Table 2), 240 nM; in data set [1] (setting [6]) it was 240 ± 18 nM.

In the case of `CC(=O)OCC1CN(C)CCC1c1ccc(Cl)cc1` (single isomer, unassigned; (+)) [Compound 14, (+)-3α-(Acetoxymethyl)-4β-(4-chlorophenyl)-1-methylpiperidine], the IC50 in data set [1] (DAT IC50 (nm), Table 2) was 461 nM; in data set [1] (setting [6]) it was 461 ± 11 nM.

Regarding `CCCC1CN(C)CCC1c1ccc(Cl)cc1` (single isomer, unassigned; (+)) [Compound 15, (+) 4β-(4-Chlorophenyl)-1-methyl-3α-n-propylpiperidine], the IC50 in data set [3] (setting [8]) was 183 nM; in data set [4] (setting [9]) it was 0.155 µM; in data set [2] (setting [7]), 23 nM; in data set [2] (setting [5]), 23.2 ± 2.2 nM; in data set [1] (setting [10]), 17.2 ± 0.5 nM.

Consider `CN1CCC(c2ccc(Cl)cc2)C(CCCS)C1` (single isomer, unassigned; (+)) [Compound 55], for which the IC50 in data set [1] (setting [11]) came out at 28 nM.

Turning to `Cc1noc(C2CN(C)CCC2c2ccc(Cl)cc2)n1` (single isomer, unassigned; (+)) [Compound 56], the IC50 in data set [3] (setting [8]) was 1130 nM; in data set [4] (setting [9]), greater than 10 µM; in data set [1] (setting [11]) it was 172 nM.

For the compound `CN1CCC(c2ccc(Cl)cc2)C(c2nc(-c3ccccc3)no2)C1` (single isomer, unassigned; (+)) [Compound 58], the IC50 stood at 7.4 µM in data set [4] and 289 nM in data set [1] (DAT IC50 (nm), Table 2).

For the compound `CN1CCC(c2ccc(Cl)cc2)C(C(=O)Oc2ccccc2)C1` (single isomer, unassigned; (+)) [Compound 59, (+)-Phenyl 4β-(4-Chlorophenyl)-1-methylpiperidine-3α-carboxylate], the IC50 worked out at 56500 nM in data set [3]; 25.1 µM in data set [4] (5-HTT IC50 (nm), Table 2); 1460 nM in data set [1] (DAT IC50 (nm), Table 2).

Take `C=Cc1ccc(C2CCN(C)CC2C(=O)OC)cc1` (single isomer, unassigned; (+)) [Compound 65, (+)-Methyl 4β-(4-Vinylphenyl)-1-methylpiperidine-3α-carboxylate]: the IC50 in data set [4] (5-HTT IC50 (nm), Table 2) came to 55.7 µM.

Turning to `CCc1ccc(C2CCN(C)CC2C(=O)OC)cc1` (single isomer, unassigned; (+)) [Compound 67, (+)-Methyl 4β-(4-Ethylphenyl)-1-methylpiperidine-3α-carboxylate], the IC50 in data set [1] (setting [11]) was determined as 7340 nM.

`CCc1ccc(C2CCN(C)CC2C(=O)OC)cc1I` (single isomer, unassigned; (+)) [Compound 68, (+)-Methyl 4β-(4-Ethyl-3-iodophenyl)-1-methylpiperidine-3α-carboxylate] came in with an IC50 in data set [1] (DAT IC50 (nm), Table 2) of 1420 nM.

Take `COC(=O)C1CN(C)CCC1c1ccc(Cl)cc1` (single isomer, unassigned; (-)) [Compound 12, (−)-Methyl 4β-(4-Chlorophenyl)-1-methylpiperidine-3α-carboxylate]: the IC50 in data set [2] (setting [7]) came out at 195 nM; in data set [2] (setting [5]), 195 ± 8 nM; in data set [1] (DAT IC50 (nm), Table 2), 653 nM; in data set [1] (setting [6]) it was 653 ± 38 nM.

`COC(=O)C1CN(S(=O)(=O)c2ccccc2)CCC1c1ccc(Cl)cc1` (single isomer, unassigned; (-)) [Compound 46, (−)-Methyl 4β-(4-Chlorophenyl)-1-phenylsulfonyl-piperidine-3β-carboxylate] showed a melting point of 76 to 78 °C. Moreover, in data set [3], the IC50 is greater than 10000 nM. The compound further displayed an IC50 in data set [1] (DAT IC50 (nm), Table 2) of 26100 nM.

In turn, `COC(=O)C1CN(Cc2ccccc2)CCC1c1ccc(Cl)cc1` (single isomer, unassigned; (-)) [Compound 47, (−)-Methyl 4β-(4-Chlorophenyl)-1-benzylpiperidine-3β-carboxylate] yielded a melting point of 119 to 121 °C. Also, the IC50 in data set [1] (DAT IC50 (nm), Table 2) is 917 nM.

In data set [1] (DAT IC50 (nm), Table 2), `COC(=O)C1(C)CN(C)CCC1c1ccc(Cl)cc1` (single isomer, unassigned; (-)) [Compound 49, (−)-Methyl 4β-(4-Chlorophenyl)-3β-methyl-1-methylpiperidine-3b-carboxylate] yielded an IC50 of 1970 nM.

In the case of `CN1CCC(c2ccc(Cl)cc2)C(C(=O)Oc2ccccc2)C1` (single isomer, unassigned; (-)) [Compound 60, (−)-Phenyl 4β-(4-Chlorophenyl)-1-methylpiperidine-3b-carboxylate], the IC50 in data set [1] (DAT IC50 (nm), Table 2) stood at 39 nM.

In turn, `CCc1ccc(C2CCN(C)CC2C(=O)OC)cc1I` (single isomer, unassigned; (-)) [Compound 66, (−)-Methyl 4β-(4-Ethyl-3-iodophenyl)-1-methylpiperidine-3β-carboxylate] registered an IC50 in data set [1] (DAT IC50 (nm), Table 2) of 4410 nM.

Regarding `CCc1ccc(C2CCN(C)CC2C(=O)OC)cc1` (single isomer, unassigned; (-)) [Compound 81, (−)-Methyl 4β-(4-Ethylphenyl)-1-methylpiperidine-3β-carboxylate], the IC50 in data set [3] (setting [8]) was greater than 10000 nM; in data set [4] (5-HTT IC50 (nm), Table 2), 15.7 µM; in data set [1] (setting [11]), 1690 nM.

For the compound `CN1CC[C@H](c2ccc(Cl)cc2)[C@H](CO)C1` [Compound 5, (−)-4β-(4-Chlorophenyl)-3β-(hydroxymethyl)-1-methylpiperidine], the IC50 is 49 nM in data set [2] (setting [7]); 49 ± 3 nM in data set [2] (setting [5]); 75 nM in data set [1] (DAT IC50 (nm), Table 2); 75.3 ± 6.2 nM in data set [1] (setting [6]).

Regarding `CCC[C@@H]1CN(C)CC[C@@H]1c1ccc(Cl)cc1` [Compound 9, (−) 4β-(4-Chlorophenyl)-1-methyl-3β-n-propylpiperidine], the IC50 in data set [2] (setting [7]) was 8 nM; in data set [2] (setting [5]), 8.3 ± 0.6 nM; in data set [1] (setting [11]), 3 nM; in data set [1] (setting [10]), 3 ± 0.5 nM; in data set [1] (read-out: binding affinity) it was 3 nM. Moreover, in data set [2] (relative to cocaine), the “fold more potent than cocaine in inhibition of dopamine uptake” value is on record as 29 fold. In addition, the “fold more potent than cocaine in binding affinity” value in data set [1] (relative to cocaine) is recorded as 33 fold.

Take `COC(=O)[C@@H]1CN(C)CC[C@@H]1c1ccccc1` [Compound 10, (−)-Methyl 1-Methyl-4β-phenylpiperidine-3β-carboxylate]: the IC50 in data set [1] (DAT IC50 (nm), Table 2) was 797 nM; in data set [1] (setting [6]), 769 ± 19 nM.

As for `COC(=O)[C@H]1CN(C)CC[C@@H]1c1ccc(Cl)cc1` [Compound 11, (+)-Methyl 4β-(4-Chlorophenyl)-1-methylpiperidine-3α-carboxylate], the IC50 in data set [3] is 4200 nM; in data set [4] (5-HTT IC50 (nm), Table 2), 1.62 µM; in data set [2] (setting [7]), 34 nM; in data set [2] (setting [5]) it was 34.6 ± 3.2 nM; in data set [1] (setting [11]), 57 nM; in data set [1] (setting [10]), 57.3 ± 8.1 nM.

With `CN1CC[C@H](c2ccc(Cl)cc2)[C@@H](CCCO)C1` [Compound 54], the IC50 in data set [3] was 563 nM; in data set [4] it was 2.81 µM; in data set [1] (DAT IC50 (nm), Table 2) it was 15 nM.

Turning to `CN1CC[C@H](c2ccc(Cl)cc2)[C@@H](CCCF)C1` [Compound 80, (+)-4β-(4-Chlorophenyl)-3α-(3-fluoropropyl)-1-methylpiperidine], the IC50 in data set [1] (DAT IC50 (nm), Table 2) stood at 28 nM.
